Measurements published in patent US3952051A, “Method for crystallization of diamine dicarboxylate” (Asahi Kasei Kogyo Kabushiki Kaisha, priority 1971, dated 1976).

Assay: Size of crystals collected after neutralization

hexamethylenediamine adipate
Average size of crystals (Example 1, from aqueous medium, pH 7.5, 60°C.): 700 microns
Grain size of collected crystals (comparative example, methanol as solvent): about 250 microns
